In series [1] the target is T1, human MCH receptor 1 (MCHR1) (Homo sapiens, UniProt Q99705).
T1 construct: expressed in transfected cells; host or cells: CHO cell clone 57 (membrane fraction)
As to the kind of experiment: human MCH receptor 1 (MCHR1) competitive binding assay with [125I]-MCH(4-19). Conditions: test compound 0.1 μM, human MCHR1-expressing CHO cell membrane fraction, read-out: Binding inhibition rate % (0.1 μM). A digest of the protocol:
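Membranes from CHO cells expressing human MCHR1 incubated with [125I]-MCH(4-19) and test compound in 20 mM Tris-HCl pH 7.5/5 mM EDTA with protease inhibitors, 1 hr at room temperature. Bound radioactivity collected on PEI-treated GF/C filters; % inhibition at 0.1 μM compound, nonspecific binding set with cold MCH(1-19).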

The next series concerns the target T2, human MCHR1 (Homo sapiens, UniProt Q99705).
T2 construct: expressed in transfected cells; host or cells: CHO dhfr- cells, clone #4
Description: MCH receptor 1 antagonistic activity, Ca2+ mobilization assay. The series is classed as cell-based. The settings on record: CHO, test compound 0.1 μM; human MCHR1-expressing CHO cells (clone #4); ligand MCH(4-19) 2 nM; read-out: Inhibitory rate % (0.1 μM). A digest of the protocol: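 CHO dhfr− cells stably expressing human MCHR1 (clone #4) were used in a fluorometric Ca2+ mobilization assay. Test compounds were run at 0.1 μM, with antagonism expressed as percent inhibition.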
(In general: Calcium assays in cells follow changes in intracellular calcium, usually with a dye or a luminescent sensor.)

Series [2] deals with male diet-induced obese F344/Jcl rats. Description: Anorectic effect in male diet-induced obese F344/Jcl rats. The settings on record: Rattus norvegicus, po, 48 h, 5 mg/mL suspension at 2 mL/kg, two administrations, food intake for 2 days vs control group, read-out: Food intake suppression rate (%). The class given is in vivo, rat. Here is the method: Evaluation of Anorectic Effect Using Male Diet-Induced Obese F344/Jcl Rats
Male diet-induced obese F344/Jcl rats (44-50 weeks old) fed with a high-fat diet (D12451: Research Diets) from 5 weeks old were used. From before the start of experiment, the rats were singly housed, given a powder high-fat diet (D12451M: Research Diets), and habituated to oral administration with tap water. The food intake from the evening of the day before the start of experiment to the next morning was measured, and the rats were grouped based on both the food intake and the body weight of the previous day. In the evening of the day of the start of experiment and the next day, 0.5% methylcellulose solution was orally administered to the control group, and 0.5% methylcellulose suspension (5 mg/mL) of the test compound was orally administered to the compound administration group at 2 mL/kg (6 per group for both control group and compound administration group). The food intake for 2 days from the initial administration was measured. The food intake inhibition rate of each compound administration group to the control group was calculated.

A further series has as its system HepG2 cells. As to the kind of experiment: PLsis (phospholipidosis) inducing potential, NBD-PE uptake. The class given is cell-based. The settings on record: 24 hr exposure, relative value to 10 μM Amiodarone, maximum value per unit concentration. Here is the method: Evaluation of PLsis Inducing Potential
DMEM medium, L-glutamine, penicillin-streptomycin, pyruvic acid, and N-(7-nitrobenz-2-oxa-1,3-diazol-4-yl)-1,2-hexadecanoyl-sn-glycero-3-phosphoethanolamine triethylammonium salt (NBD-PE) were purchased from Invitrogen Corporation. As bovine serum albumin (BSA), a product of Thermo Trace Ltd. (Melbourne, Australia) was used, and as Amiodarone, a product of ICN (Costa Mesa, Calif.) was used. A test compound was used in the form of a 10 mM DMSO solution.
FBS was added at a final concentration of 5 vol % to DMEM medium supplemented with L-glutamine, pyruvic acid and penicillin-streptomycin and subjected to the experiment. Culture was performed using 5% carbon dioxide gas-95% air as a gas phase in a CO2 incubator at 37° C. HepG2 cells were suspended in a culture medium at 50×10^4 cells/mL, plated in a 96 well plate at 50 μL/well and precultured for 24 hr. After preculture, the culture medium was removed, a culture medium containing 60 μM NBD-PE was added at 50 μL/well, and a culture medium containing 0.6 μM or 20 μM test compounds were each added at 50 μL/well to HepG2 cells, and the cells were cultured for 24 hr. As a positive control, Amiodarone was used at a final concentration of 10 μM.
After exposure to the test compound for 24 hr, the fluorescence intensity (Ex. 485 nm, Em. 538 nm) of NBD-PE uptaken by the cells was measured by a fluorometer. The measurement value with addition of 0 μM test compound solution was subtracted as a blank, a relative value to the measurement 5 value with addition of 10 μM Amiodarone was calculated, and the maximum value per unit concentration of the test compound was obtained as a phospholipidosis (PLsis) inducing potential.

Here are results for 11 compounds from US9365540B2, “Benzimidazole derivatives as MCH receptor antagonists” (Takeda Pharmaceutical Company Limited, priority 2012, dated 2016).

T1 sequence (Q99705 whole entry): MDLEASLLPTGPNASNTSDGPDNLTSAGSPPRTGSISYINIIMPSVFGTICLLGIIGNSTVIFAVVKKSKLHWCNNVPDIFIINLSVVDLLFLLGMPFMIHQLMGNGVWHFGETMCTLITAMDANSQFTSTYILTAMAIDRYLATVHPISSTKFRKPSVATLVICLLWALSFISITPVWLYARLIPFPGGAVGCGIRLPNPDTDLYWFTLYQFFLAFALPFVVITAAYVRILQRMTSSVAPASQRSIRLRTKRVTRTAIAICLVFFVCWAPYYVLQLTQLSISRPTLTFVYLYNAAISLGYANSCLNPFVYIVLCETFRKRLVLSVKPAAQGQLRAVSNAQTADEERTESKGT
T2 sequence (Q99705 whole entry): as above

As for `Cc1c(C2CC2)nc2ccc(-n3ccc(OCc4ccc(F)cc4)cc3=O)cn12` [Example 1, 1-(2-Cyclopropyl-3-methylimidazo[1,2-a]pyridin-6-yl)-4-((4-fluorobenzyl)oxy)pyridin-2(1H)-one], the inhibition at 0.1 µM stood at 91% in series [1] and 98% at human MCHR1. Besides, the inhibition in vivo at 5000 µg/mL, 10 mg/kg in series [2] was found to be 19.5%. This compound came in with a PLsis inducing potential in the series with HepG2 cells of 2.5.
The matching figures for `Cc1c(C2CC2)nc2ccc(-n3ccc(OCc4ccc(Cl)cc4)cc3=O)cn12` [Example 3, 4-((4-Chlorobenzyl)oxy)-1-(2-cyclopropyl-3-methylimidazo[1,2-a]pyridin-6-yl)pyridin-2(1H)-one]: 88%, 99%, 29.6% and 2.4.
Turning to `Cc1c(C2CC2)nc2ccc(-n3ccc(OCc4ccccc4)cc3=O)cn12` [Example 11, 4-(Benzyloxy)-1-(2-cyclopropyl-3-methylimidazo[1,2-a]pyridin-6-yl)pyridin-2(1H)-one], the inhibition at 0.1 µM was determined as 81% in series [1] and 101% at human MCHR1. In addition, in series [2], the inhibition in vivo at 5000 µg/mL, 10 mg/kg is 21.8%. In the series on HepG2 cells, this compound returned a PLsis inducing potential of 2.0.
The matching figures for `Cn1c(C2CC2)nc2ccc(-n3ccc(OCc4ccc(Cl)cn4)cc3=O)cc21` [Example 112, 4-((5-Chloropyridin-2-yl)methoxy)-1-(2-cyclopropyl-1-methyl-1H-benzimidazol-6-yl)pyridin-2(1H)-one]: 70%, 48%, 25.5% and 1.6.
As to `Cn1c(C2CC2)nc2ccc(-n3ccc(OCc4ccc(F)c(F)c4)cc3=O)cc21` [Example 115, 1-(2-Cyclopropyl-1-methyl-1H-benzimidazol-6-yl)-4-((3,4-difluorobenzyl)oxy)pyridin-2(1H)-one], the inhibition at 0.1 µM in series [1] is 82%. Also, the inhibition in vivo at 5000 µg/mL, 10 mg/kg in series [2] amounted to 32%. Also, the PLsis inducing potential with HepG2 cells was determined as 1.8.
Turning to `Cn1c(C2CC2)nc2ccc(-n3ccc(OCc4ccc(Cl)s4)cc3=O)cc21` [Example 121, 4-((5-Chloro-2-thienyl)methoxy)-1-(2-cyclopropyl-1-methyl-1H-benzimidazol-6-yl)pyridin-2(1H)-one], the inhibition at 0.1 µM was 95% in series [1] and 96% at human MCHR1. For the same compound, the inhibition in vivo at 5000 µg/mL, 10 mg/kg in series [2] was 36.5%. The PLsis inducing potential in the series with HepG2 cells stood at 1.7.
On to `Cn1c(C2CC2)nc2ccc(-n3ccc(OCc4csc(Cl)c4)cc3=O)cc21` [Example 143, 4-((5-Chloro-3-thienyl)methoxy)-1-(2-cyclopropyl-1-methyl-1H-benzimidazol-6-yl)pyridin-2(1H)-one], for which the inhibition at 0.1 µM in series [1] stood at 91%. Besides, the inhibition in vivo at 5000 µg/mL, 10 mg/kg in series [2] is 39.4%. This compound yielded a PLsis inducing potential with HepG2 cells of 1.6.
As to `Cc1c(C2CC2)nc2ccc(-n3ccc(OCc4ccc(F)s4)cc3=O)cn12` [Example 156, 1-(2-Cyclopropyl-3-methylimidazo[1,2-a]pyridin-6-yl)-4-((5-fluorothiophen-2-yl)methoxy)pyridin-2(1H)-one], the values for the inhibition at 0.1 µM (in series [1]; at human MCHR1) were 48% and 90%, respectively. The same compound registered a PLsis inducing potential with HepG2 cells of 2.0.
Taken in the same sequence, the figures for `CCc1nc2ccc(-n3ccc(OCc4csc(Cl)c4)cc3=O)cc2n1C` [Example 226, 4-((5-Chloro-3-thienyl)methoxy)-1-(2-ethyl-1-methyl-1H-benzimidazol-6-yl)pyridin-2(1H)-one] were 89%, 106% and 2.1.
Turning to `CCc1nc2ccc(-n3ccc(OCc4cc(C(F)(F)F)cs4)cc3=O)cc2n1C` [Example 276, 1-(2-Ethyl-1-methyl-1H-benzimidazol-6-yl)-4-((4-(trifluoromethyl)-2-thienyl)methoxy)pyridin-2(1H)-one], the inhibition at 0.1 µM is 71% in series [1] and 97% at human MCHR1. In addition, the inhibition in vivo at 5000 µg/mL, 10 mg/kg in series [2] is 57.9%.
For the compound `Cc1nc2ccc(-n3ccc(OCc4csc(C(F)(F)F)c4)cc3=O)cc2n1C` [Example 290, 1-(1,2-Dimethyl-1H-benzimidazol-6-yl)-4-((5-(trifluoromethyl)thiophen-3-yl)methoxy)pyridin-2(1H)-one], the values for the inhibition at 0.1 µM (in series [1]; on human MCHR1) were 77% and 90%, respectively. Moreover, the inhibition in vivo at 5000 µg/mL, 10 mg/kg in series [2] came to 43.5%.
